Assay results: PubChem BioAssay AID330 (DTP/NCI, 2004)
Several values for one entry are separate records, joined by “and”; a condition that tells them apart may be missing. Identical values can stand only once. Inconclusive results and toxic doses are left out.

Tested on: P388 leukemia ip, CD2F1 mice, survival T/C
Experiment: NCI In Vivo Anticancer Drug Screen. Data for tumor model P388 Leukemia (intraperitoneal) in CD2F1 (CDF1) mice
Details: endpoint: median survival time, higher = longer survival
In short: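 Mice carrying the transplanted tumor received test compound or vehicle. Survival was recorded in each group, and the value is the treated-group measurement divided by that of the vehicle-treated control group.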

[1] = dose: 12.5 mg/kg/injection, schedule: Q01DX005 (ip), vehicle: saline with Tween-80
[2] = dose: 25.0 mg/kg/injection, schedule: Q01DX005 (ip), vehicle: saline with Tween-80
[3] = dose: 50.0 mg/kg/injection, schedule: Q01DX005 (ip), vehicle: saline with Tween-80
[4] = dose: 60.0 mg/kg/injection, schedule: Q01DX005 (ip), vehicle: saline with Tween-80
[5] = dose: 120.0 mg/kg/injection, schedule: Q01DX005 (ip), vehicle: saline with Tween-80
[6] = dose: 240.0 mg/kg/injection, schedule: Q01DX005 (ip), vehicle: saline with Tween-80
[7] = dose: 50.0 mg/kg/injection, schedule: Q01DX009 (ip), vehicle: saline with Tween-80
[8] = dose: 100.0 mg/kg/injection, schedule: Q01DX009 (ip), vehicle: saline with Tween-80
[9] = dose: 200.0 mg/kg/injection, schedule: Q01DX009 (ip), vehicle: saline with Tween-80
[10] = dose: 50.0 mg/kg/injection, schedule: Q01DX009 (ip), vehicle: Klucel (hydroxypropylcellulose) (HPC)
[11] = dose: 100.0 mg/kg/injection, schedule: Q01DX009 (ip), vehicle: Klucel (hydroxypropylcellulose) (HPC)
[12] = dose: 200.0 mg/kg/injection, schedule: Q01DX009 (ip), vehicle: Klucel (hydroxypropylcellulose) (HPC)
[13] = dose: 6.25 mg/kg/injection, schedule: Q01DX009 (ip), vehicle: saline with Tween-80
[14] = dose: 100.0 mg/kg/injection, schedule: Q04DX003 (ip), vehicle: saline with Tween-80
[15] = dose: 50.0 mg/kg/injection, schedule: Q01DX009 (ip), vehicle: saline
[16] = dose: 100.0 mg/kg/injection, schedule: Q01DX009 (ip), vehicle: saline
[17] = dose: 200.0 mg/kg/injection, schedule: Q01DX009 (ip), vehicle: saline
[18] = dose: 60.0 mg/kg/injection, schedule: Q01DX005 (ip), vehicle: Klucel (hydroxypropylcellulose) (HPC)
[19] = dose: 120.0 mg/kg/injection, schedule: Q01DX005 (ip), vehicle: Klucel (hydroxypropylcellulose) (HPC)

In the case of `CC1(c2ccc(S(=O)(=O)c3ccccc3)cc2)OC(=O)C=CC1=O` (configuration not stated), the T/C (dose: 6.25 mg/kg/injection, schedule: Q01DX005 (ip), vehicle: saline with Tween-80) is reported as 89 % of control, the T/C [1] is reported as 89 % of control and the T/C [2] is reported as 115 % of control. The T/C [3] was 120 % of control.

With `COc1ccc2c(O)c(S(=O)(=O)c3ccc(C)cc3)c(=O)oc2c1` the T/C [4] was 92 % of control, the T/C [5] was 104 % of control and the T/C [6] was 115 % of control.

`Cc1ccc(NC(=O)C(F)(F)F)cc1` was tested, and the T/C [7] was 113 % of control, the T/C [8] was 108 % of control and the T/C [9] was 108 % of control.

`Nc1nc(N)c2cc(Sc3ccc(Cl)cc3)ccc2n1` was tested, and the T/C (dose: 25.0 mg/kg/injection, schedule: Q01DX009 (ip), vehicle: saline with Tween-80) was 118 % of control and the T/C [9] was 86 % of control.

`FC(F)(F)c1cccc(OCC2CO2)c1` (configuration not stated) was tested, and the T/C [10] was 102 % of control, the T/C [11] was 99 % of control and the T/C [12] was 97 % of control.

For `S=C=NCCCCCCCCCCCCN=C=S`, the T/C (dose: 3.12 mg/kg/injection, schedule: Q01DX009 (ip), vehicle: saline with Tween-80) was 112 % of control and 115 % of control and the T/C [13] was 106 % of control and 120 % of control.

With `Nc1cc(Nc2cccc(Cl)c2)nc(N)n1` the T/C (dose: 50.0 mg/kg/injection, schedule: Q04DX003 (ip), vehicle: saline with Tween-80) was 87 % of control and the T/C [14] was 91 % of control.

In the case of `Nc1c2c(=O)[nH]c(O)cc2nn1-c1ccccc1`, the T/C [1] is reported as 100 % of control, the T/C [2] is reported as 96 % of control and the T/C [3] is reported as 100 % of control and 97 % of control.

For `O=C(/N=C1\N=Nc2nc(C3(c4nc5n(c4O)/C(=N/C(=O)Nc4ccc(Cl)cc4)N=N5)CCCC3=O)c(O)n21)Nc1ccc(Cl)cc1` (configuration not stated), the T/C [4] was 91 % of control and the T/C [5] was 86 % of control.

In the case of `Cc1ccc(N=Nc2c(O)ccc3n[nH]nc23)cc1`, the T/C [10] is reported as 99 % of control, the T/C [11] is reported as 101 % of control and 105 % of control and the T/C (dose: 100.0 mg/kg/injection, schedule: Q04DX003 (ip), vehicle: Klucel (hydroxypropylcellulose) (HPC)) is reported as 100 % of control. The T/C [12] was 99 % of control and 109 % of control, the T/C (dose: 200.0 mg/kg/injection, schedule: Q04DX003 (ip), vehicle: Klucel (hydroxypropylcellulose) (HPC)) was 100 % of control and the T/C (dose: 400.0 mg/kg/injection, schedule: Q01DX009 (ip), vehicle: Klucel (hydroxypropylcellulose) (HPC)) was 100 % of control and 109 % of control. The T/C (dose: 400.0 mg/kg/injection, schedule: Q04DX003 (ip), vehicle: Klucel (hydroxypropylcellulose) (HPC)) was 93 % of control.

In the case of `OCC1OC(Oc2ccc(O)cc2)C(O)C(O)C1O` (configuration not stated), the T/C (dose: 4.5 mg/kg/injection, schedule: Q01DX009 (ip), vehicle: Klucel (hydroxypropylcellulose) (HPC)) is reported as 97 % of control, the T/C (dose: 9.0 mg/kg/injection, schedule: Q01DX009 (ip), vehicle: Klucel (hydroxypropylcellulose) (HPC)) is reported as 90 % of control and the T/C (dose: 18.0 mg/kg/injection, schedule: Q01DX009 (ip), vehicle: Klucel (hydroxypropylcellulose) (HPC)) is reported as 90 % of control. For the same molecule, the T/C (dose: 36.0 mg/kg/injection, schedule: Q01DX009 (ip), vehicle: Klucel (hydroxypropylcellulose) (HPC)) was 98 % of control, the T/C [15] was 102 % of control and the T/C [16] was 102 % of control. For the same molecule, the T/C [17] was 102 % of control and the T/C (dose: 400.0 mg/kg/injection, schedule: Q01DX009 (ip), vehicle: saline) was 106 % of control.

With `NC(=O)Oc1cccc(OC(N)=O)c1` the T/C (dose: 25.0 mg/kg/injection, schedule: Q01DX009 (ip), vehicle: other) was 103 % of control, the T/C (dose: 50.0 mg/kg/injection, schedule: Q01DX009 (ip), vehicle: other) was 111 % of control and the T/C (dose: 50.0 mg/kg/injection, schedule: Q04DX003 (ip), vehicle: other) was 95 % of control. The T/C (dose: 100.0 mg/kg/injection, schedule: Q01DX009 (ip), vehicle: other) was 113 % of control, the T/C (dose: 200.0 mg/kg/injection, schedule: Q01DX009 (ip), vehicle: other) was 113 % of control and the T/C (dose: 200.0 mg/kg/injection, schedule: Q04DX003 (ip), vehicle: other) was 98 % of control.

For `Cc1ccc(C=Nc2ccc(Cl)c(Cl)c2)cc1`, the T/C [4] was 100 % of control, the T/C [5] was 108 % of control and the T/C [6] was 89 % of control.

With `COc1cccc(C2SCC(=O)N2c2nncs2)c1` (configuration not stated) the T/C [4] was 100 % of control, the T/C [5] was 97 % of control and the T/C [6] was 104 % of control.

`CC(=O)Nc1cc(N(CCOS(C)(=O)=O)CCOS(C)(=O)=O)ccc1N=O` was tested, and the T/C (dose: 0.08 mg/kg/injection, schedule: Q01DX009 (ip), vehicle: saline) was 154 % of control, the T/C (dose: 1.25 mg/kg/injection, schedule: Q04DX003 (ip), vehicle: saline sonified) was 168 % of control and the T/C (dose: 2.5 mg/kg/injection, schedule: Q04DX003 (ip), vehicle: saline sonified) was 177 % of control. For the same molecule, the T/C (dose: 75.0 micrograms/kg/injection, schedule: Q01DX009 (ip), vehicle: saline) was 159 % of control and the T/C (dose: 150.0 micrograms/kg/injection, schedule: Q01DX009 (ip), vehicle: saline) was 159 % of control.

For `C(=Nc1ccccc1)Nc1ccccc1.[Cu+2]`, the T/C [13] was 100 % of control and the T/C (dose: 12.5 mg/kg/injection, schedule: Q01DX009 (ip), vehicle: saline with Tween-80) was 104 % of control and 108 % of control.

With `CCCCC1CCC(=O)NC1=O` (configuration not stated) the T/C [4] was 107 % of control, the T/C [5] was 103 % of control and the T/C [6] was 107 % of control.

For `CN(C)/C=C1\C(C(C)(C)C)=CC(C(C)(C)C)=C1N=O`, the T/C [18] was 105 % of control and the T/C [19] was 104 % of control.

`Cc1nn(C)c(=O)c(N)c1-c1cc(-c2ccc(Cl)cc2)n[nH]1` was tested, and the T/C [4] was 89 % of control and the T/C [5] was 88 % of control.

With `NC(=O)c1cn[nH]c1N` the T/C (dose: 25.0 mg/kg/injection, schedule: Q01DX009 (ip), vehicle: suspension in saline) was 118 % of control, the T/C [15] was 90 % of control and the T/C (dose: 50.0 mg/kg/injection, schedule: Q01DX009 (ip), vehicle: suspension in saline) was 97 % of control. For the same molecule, the T/C [16] was 90 % of control, the T/C (dose: 100.0 mg/kg/injection, schedule: Q01DX009 (ip), vehicle: suspension in saline) was 104 % of control and the T/C [17] was 87 % of control. The T/C (dose: 200.0 mg/kg/injection, schedule: Q01DX009 (ip), vehicle: suspension in saline) was 94 % of control.

In the case of `CCCN(CCC)CCSC(=S)NCCOC`, the T/C [14] is reported as 100 % of control and the T/C (dose: 200.0 mg/kg/injection, schedule: Q04DX003 (ip), vehicle: saline with Tween-80) is reported as 100 % of control.

For `CC(O)CN(Cc1c(O)ccc2ccccc12)CC(C)O` (configuration not stated), the T/C [3] was 108 % of control, the T/C (dose: 100.0 mg/kg/injection, schedule: Q01DX005 (ip), vehicle: saline with Tween-80) was 110 % of control and the T/C (dose: 200.0 mg/kg/injection, schedule: Q01DX005 (ip), vehicle: saline with Tween-80) was 99 % of control.

In the case of `CC(=O)c1ccc(Cl)c(-n2cccc2)c1`, the T/C (dose: 50.0 mg/kg/injection, schedule: Q01DX005 (ip), vehicle: Klucel (hydroxypropylcellulose) (HPC)) is reported as 95 % of control and the T/C (dose: 100.0 mg/kg/injection, schedule: Q01DX005 (ip), vehicle: Klucel (hydroxypropylcellulose) (HPC)) is reported as 101 % of control.

In the case of `Cn1c(=O)c2c(nc(CCCCc3nc4c(c(=O)n(C)c(=O)n4C)n3C)n2C)n(C)c1=O`, the T/C (dose: 1.56 mg/kg/injection, schedule: Q01DX009 (ip), vehicle: saline with Tween-80) is reported as 87 % of control, the T/C (dose: 3.13 mg/kg/injection, schedule: Q01DX009 (ip), vehicle: saline with Tween-80) is reported as 89 % of control and the T/C [13] is reported as 88 % of control. For the same molecule, the T/C [7] was 86 % of control.

With `CCOC(=O)CC1(O)Oc2cc3c(cc2C(c2cc(OC)c(OC)c(OC)c2)C1C(=O)OCC)OCO3` (configuration not stated) the T/C [18] was 87 % of control, the T/C [19] was 89 % of control and the T/C (dose: 240.0 mg/kg/injection, schedule: Q01DX005 (ip), vehicle: Klucel (hydroxypropylcellulose) (HPC)) was 88 % of control.

For `COc1ccc(-c2nccc3cc(OC)c(OC)cc23)cc1OC`, the T/C (dose: 6.25 mg/kg/injection, schedule: Q01DX009 (ip), vehicle: water) was 100 % of control, the T/C (dose: 12.5 mg/kg/injection, schedule: Q01DX009 (ip), vehicle: water) was 103 % of control and the T/C (dose: 25.0 mg/kg/injection, schedule: Q01DX009 (ip), vehicle: water) was 106 % of control. For the same molecule, the T/C (dose: 50.0 mg/kg/injection, schedule: Q01DX009 (ip), vehicle: water) was 118 % of control.

For `Nc1ccc(C2NC(=O)Cc3ccccc32)cc1` (configuration not stated), the T/C [15] was 92 % of control, the T/C [16] was 90 % of control and the T/C [17] was 86 % of control.

For `CC(=O)NC1C=CC(=O)O1` (configuration not stated), the T/C (dose: 2.1 mg/kg/injection, schedule: Q01DX010 (ip), vehicle: saline) was 104 % of control.

`CC1=NN(C(=O)c2ccncc2)C(=O)C1N=Nc1ccc(S(=O)(=O)Nc2nccs2)cc1` (configuration not stated) was tested, and the T/C [7] was 102 % of control, the T/C [8] was 97 % of control and the T/C [9] was 96 % of control.
